Source: US9233933B2, “4,4-disubstituted-1,4-dihydropyrimidines and the use thereof as medicaments for the treatment of hepatitis B” (priority 2012, dated 2016)
Where a name gives a salt, the structure may show the parent alone. Read-outs that look alike come from different tables or passages of the source.

How the values were obtained:
in vitro = settings: human, HepG2 4 days CC50
HBV [1] = experiment: anti HBV activity in HepG2.117 cell line (Tet-off, inducibly HBV producing), intracellular HBV DNA by realtime PCR; type: cell-based, Hepatitis B virus; settings: HepG2.117 cells, 3 days of treatment, intracellular HBV DNA, read-out: HepG2 117 EC50
HBV [2] = experiment: anti-HBV activity in stable transfected HepG2.2.15 cell line, HBV DNA from secreted virions by realtime PCR; type: cell-based, Hepatitis B virus; settings: HepG2.2.15 cells, 6 days of treatment, secreted virion HBV DNA, read-out: HBV-HepG2 2.15 EC50
[3] = Cytotoxicity in HepG2 cells using CellTiter-Blue, same incubation period as HepG2.2.15 assay; type: cell-based; settings: human
Protocol: Cytotoxicity of the compounds was tested in HepG2 cells using CellTiter-Blue, with the same incubation period and dose range as in the HepG2.2.15 assay.

[4] = Cytotoxicity in HepG2 cells incubated 4 days, Resazurin assay; settings: human, HepG2 4 days CC50, HepG2 cells
[5] = Hepatitis B virus, HepG2.117, 72 h
[6] = Hepatitis B virus, HepG2.2.15, 144 h
[7] = HepG2 cells, 6 days, CellTiter-Blue, read-out: HepG2 6 days CC50

SMILES | CC50 at 4 days (in vitro) | EC50 (HBV [1]; [5]) | EC50 (HBV [2]; [6]) | CC50 at 6 days ([3]; HepG2 6 days CC50) | EC50 (HBV [1]) | EC50 (HBV [2]) | CC50 at 4 days [4] | CC50 at 6 days [3, 7]
COC(=O)C1=C(C)NC(c2ncc(F)cc2F)=NC12C(=O)N(C)c1cc(F)ccc12 (centres unmarked) [Compound 118] | > 50 µM | > 50 µM | 40.7 µM | > 100 µM |  |  |  | 
COC(=O)C1=C(CN2CCOCC2)NC(c2ccccn2)=NC12CC(O)c1cc(F)ccc12 (centres unmarked) [Compound 144] | > 10 µM | 4.94 µM |  |  |  |  |  | 
CCOC(=O)C1=C(CN2CCOCC2)NC(c2ccccn2)=NC12CCCc1ccc(F)cc12 (centres unmarked) [Compound 59] | > 100 µM | 46.7 µM | 59.5 µM | 68.9 µM |  |  |  | 
CCOC(=O)C1=C(CN2CCOCC2)NC(c2ccccn2)=NC12CCC(C)(C)c1ccccc12 (centres unmarked) [Compound 56] | > 100 µM | 52.6 µM | 35.2 µM | 36.4 µM |  |  |  | 
COC(=O)C1=C(CN2CCOCC2)NC(c2ccccn2)=NC12C=Cc1cc(F)ccc12 (centres unmarked) [Compound 145] | > 25 µM | 0.62 µM | 0.36 µM |  |  |  |  | 
CCOC(=O)C1=C(CN2CCOCC2)NC(c2ccccn2)=NC12CCc1cc(F)ccc12 (centres unmarked) [Compound 39] | > 100 µM | 0.41 µM | 0.405 µM | 62.9 µM |  |  |  | 
COC(=O)C1=C(CN2CCOCC2)NC(c2ccccn2)=NC12CCc1cc(F)ccc12 (centres unmarked) [Compound 143] | > 25 µM | 0.222 µM |  |  |  |  |  | 
COC(=O)C1=C(CN2CCOCC2)NC(c2ccccn2)=NC12C(F)=Cc1ccccc12 (centres unmarked) [Compound 112] | > 50 µM | 0.41 µM | 0.624 µM | > 100 µM |  |  |  | 
COC(=O)C1=C(C)NC(c2nccs2)=NC12C(F)=Cc1c2ccc(F)c1F (racemic) [Compound 174] | > 25 µM | 13.4 µM |  |  |  |  |  | 
COC(=O)C1=C(CN2CCOCC2)NC(c2ccccn2)=NC12c1ccccc1OC2(F)F (centres unmarked) [Compound 124] | > 25 µM | 2.41 µM | 13 µM | 48.4 µM |  |  |  | 
COC(=O)C1=C(CN2CCOCC2)NC(c2ccccn2)=N[C@@]12c1ccc(F)cc1C[C@H]2F (racemic) [Compound 175] | > 25 µM | 0.146 µM | < 0.195 µM |  |  |  |  | 
COC(=O)C1=C(C)NC(c2ccccn2)=NC12c1ccccc1CC2(F)F (centres unmarked) [Compound 111] | > 50 µM | > 50 µM | 81.8 µM | > 100 µM |  |  |  | 
COC(=O)C1=C(C)NC(c2ncc(F)cc2F)=NC12c1ccccc1OC2(F)F (centres unmarked) [Compound 106] | > 25 µM | > 25 µM | 98.4 µM | > 100 µM |  |  |  | 
COC(=O)C1=C(C)NC(c2nccs2)=NC12C(F)=Cc1c2ccc(F)c1F (single isomer, unassigned) [Compound 174a] | > 25 µM |  |  |  | 8.97 µM |  |  | 
COC(=O)C1=C(CN2CCOCC2)NC(c2ncc(F)cc2F)=NC12CCc1c2ccc(F)c1F (centres unmarked) [Compound 101] | > 50 µM | 0.073 µM | < 0.098 µM | > 25 µM |  |  |  | 
COC(=O)C1=C(C)NC(c2nccs2)=NC12C(F)=C(F)c1cc(F)ccc12 (single isomer, unassigned) [Compound 166a] | > 25 µM | > 25 µM |  |  |  | > 50 µM |  | 
COC(=O)C1=C(C)NC(c2ncc(F)cc2F)=NC12CCCc1cc(F)ccc12 (centres unmarked) [Compound 80] | > 50 µM | 25.1 µM |  | 51.1 µM |  |  |  | 
COC(=O)C1=C(CN2CCOCC2)NC(c2ccccn2)=NC12CCc1ccccc12 (centres unmarked) [Compound 89] | > 100 µM | 0.47 µM | 0.604 µM | > 100 µM |  |  |  | 

SMILES | CC50 at 4 days (in vitro) | EC50 (HBV [1]; [5]) | EC50 (HBV [2]; [6]) | CC50 at 6 days ([3]; HepG2 6 days CC50) | EC50 (HBV [1]) | EC50 (HBV [2]) | CC50 at 4 days [4] | CC50 at 6 days [3, 7]
COC(=O)C1=C(CN2CCOCC2)NC(c2ccccn2)=NC12CCC(C)(C)c1ccccc12 (centres unmarked) [Compound 72] | > 100 µM | 72 µM | 54 µM | 71.1 µM |  |  |  | 
COC(=O)C1=C(C)NC(c2ncc(F)cc2F)=NC12c1ccccc1OC2(F)F (single isomer, unassigned) [Compound 106a] | > 50 µM | > 50 µM |  | > 100 µM |  | > 100 µM |  | 
COC(=O)C1=C(CN2CCOCC2)NC(c2ccccn2)=NC12C(F)=C(F)c1cc(F)ccc12 (centres unmarked) [Compound 169] | > 25 µM | 0.137 µM |  |  |  |  |  | 
COC(=O)C1=C(C)NC(c2ncc(F)cc2F)=NC12c1ccccc1CC2(F)F (centres unmarked) [Compound 115] | > 25 µM | > 25 µM | > 100 µM | > 100 µM |  |  |  | 
COC(=O)C1=C(CN2CCOCC2)NC(c2ccccn2)=NC12CCc1c(F)cccc12 (single isomer, unassigned) [Compound 66a] | > 100 µM |  |  | > 100 µM | 0.066 µM | < 0.391 µM |  | 
COC(=O)C1=C(C)NC(c2ccccn2)=NC12CCOc1ccccc12 (centres unmarked) [Compound 85] | > 50 µM | > 50 µM | > 100 µM | > 100 µM |  |  |  | 
COC(=O)C1=C(C)NC(c2ccccn2)=NC12CCc1ccccc12 (centres unmarked) [Compound 90] | > 50 µM | 22.7 µM | 5.82 µM | > 50 µM |  |  |  | 
COC(=O)C1=C(C)NC(c2ncc(F)cc2F)=NC12C(=O)Nc1cc(F)ccc12 (centres unmarked) [Compound 123] | > 25 µM | > 25 µM | > 100 µM |  |  |  |  | 
COC(=O)C1=C(CN2CCOCC2)NC(c2ccccn2)=NC12CC(C)c1cc(F)ccc12 (centres unmarked) [Compound 146] | > 25 µM | 2.62 µM | 1.36 µM |  |  |  |  | 
COC(=O)C1=C(CN2CCOCC2)NC(c2ccccn2)=NC12c1ccc(F)cc1C(F)C2(F)F (single isomer, unassigned) [Compound 168A] | > 25 µM |  | 9.64 µM |  | 3.51 µM |  |  | 
COC(=O)C1=C(CN2CCOCC2)NC(c2ccccn2)=NC12CC(=O)c1cc(F)ccc12 (centres unmarked) [139 •TFA] | > 25 µM | 0.707 µM | 0.99 µM |  |  |  |  | 
N#CC1=C(CN2CCOCC2)NC(c2ccccn2)=NC12CCCc1cc(F)ccc12 (racemic) [Compound 60] |  | 2.5 µM | 2.83 µM |  |  |  | > 25 µM | > 100 µM
COC(=O)C1=C(CN2CCOCC2)NC(c2ccccn2)=NC1(C)c1ccccc1Cl (centres unmarked) [Compound 13] |  | 3.9 µM | 9.34 µM |  |  |  | > 100 µM | > 100 µM
CCOC(=O)C1=C(C)NC(c2ccccn2)=NC1(C)c1ccc(F)c(Cl)c1 (centres unmarked) [Compound 17] |  | 21 µM | > 50 µM |  |  |  | > 25 µM | 39.9 µM
COC(=O)C1=C(C)NC(c2nccs2)=NC12C(F)=C(F)c1cc(F)ccc12 (racemic) [Compound 166] | > 25 µM | 14.2 µM | 0.24 µM |  |  |  |  | 
COC(=O)C1=C(CN2CCOCC2)NC(c2ccccn2)=NC1(C)c1cccc(F)c1 (centres unmarked) [Compound 30] |  | 0.29 µM | 0.941 µM |  |  |  | > 25 µM | > 100 µM
CCOC(=O)C1=C(CN2CCOCC2)NC(c2ccccn2)=NC1(C)c1ccc(F)cc1F (centres unmarked) [Compound 42] |  | 1.29 µM | 3.07 µM |  |  |  | > 50 µM | 57.7 µM
CC1(C)CCC2(N=C(c3ccccn3)NC(CN3CCOCC3)=C2C#N)c2ccccc21 (centres unmarked) [Compound 57] |  | > 25 µM | > 100 µM |  |  |  | > 25 µM | 87.4 µM
